Source: PMC2698315 (Journal of Chemical Biology, 2008)

What was measured:
[1] = system: Vascular endothelial protein tyrosine phosphatase (VE-PTP); experiment: Phosphatase inhibition assay; assay type: biochemical; conditions: 4PL fit, 37 °C, 1 mM substrate, Fig. 3b (quadrant 2)
[2] = biological target: vaccinia virus VH1-related (VHR) phosphatase (Homo sapiens, UniProt P51452); assay type: biochemical; conditions: 4PL fit, 37 °C, 5 mM substrate, Fig. 3a (quadrant 3)
Sequence of vaccinia virus VH1-related (VHR) phosphatase (P51452 whole entry): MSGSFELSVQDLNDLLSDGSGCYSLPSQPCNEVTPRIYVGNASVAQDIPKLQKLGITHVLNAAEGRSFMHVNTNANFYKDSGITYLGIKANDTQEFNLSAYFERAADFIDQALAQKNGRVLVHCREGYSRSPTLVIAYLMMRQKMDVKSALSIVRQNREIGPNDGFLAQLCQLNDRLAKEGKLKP

Q: For `O=C(O[C@@H]1Cc2c(O)cc(O)cc2O[C@@H]1c1cc(O)c(O)c(O)c1)c1cc(O)c(O)c(O)c1` [compound 172, Epigallocatechin-3-monogallate], which Hill coefficient [1] is on record?
A: Its Hill coefficient is 0.55.

Q: `CC(C)(c1ccc(NS(=O)(=O)C(F)(F)F)cc1)c1ccc(C(C)(C)c2ccc(NS(=O)(=O)C(F)(F)F)cc2)cc1` [compound 281, bis(4-trifluoromethylsulfonamidophenyl)-1,4-diisopropylbenzene] was tested. Which Hill coefficient [2] did it give?
A: Its Hill coefficient is 2.7.
